Measurements: patent US7691563B2, “Method for alleviating pain using sphingosine-1-phosphate and related compounds, and assays for identifying such compounds” (Sanofi-Aventis Pharma GmbH, priority 2003, dated 2010)
Several values for one entry are separate records, joined by “and”; a condition that tells them apart may be missing. Identical values can stand only once.

Legend:
PAM = PAM translocation to the plasma membrane in HeLa cells (immunofluorescence); type: cell-based, human
Description: Panel B: HeLa cells were treated with 10% fetal bovine serum for different times and stained with anti-PAM antibodies to monitor the subcellular localization.
Panel B: HeLa cells were treated with 0.5 μM S1P for 30 minutes and stained with anti-PAM antibodies to monitor the subcellular localization.
Panel C: Time dependence of PAM translocation in HeLa cells. Serum-starved HeLa cells were treated with 0.5 μM S1P for different times and stained with anti-PAM antibodies to monitor the subcellular localization.
Panel D: HeLa cells were treated with 0.5 μM S1P for 20 minutes and stained with anti-PAM antibodies to monitor the subcellular localization. Prior S1P-treatment were the cells incubated for 24 hours with […] pertussis toxin (PTX), for 20 minutes with, 1 μM GF109203X, 10 μM U0126, BAPTA-AM, U73122 or Ro31-223.
To monitor distribution of PAM in HeLa cells, cells were grown on glass coverslips in DMEM with 10% FBS and 1% penicillin/streptoMycin (Gibco, Karlsruhe, Germany). To visualize translocation of PAM HeLa, cells were serum starved overnight and subsequently treated with 10% serum for 2 hours. Wherever indicated, cells were preincubated for 30 minutes in the presence of different concentrations of inhibitors. The cells were fixed in 4% paraformaldehyde (Sigma, Taufkirchen, Germany) in PBS for 10 minutes and then permeablized in 0.1% Triton X-100 for another 5 minutes. The coverslips were blocked for 1 hour in 3% BSA in PBS and then incubated for 1 hour with anti-PAM antibody (1:50 dilution). This was followed by incubation with FITC-labeled goat anti-rabbit antibody in PBS containing 3% BSA. The cells were then washed with PBS and mounted. For the analysis confocal (BioRad, Hercules, Calif.) and regular flourescence microscopes (Nikon, Duesseldorf, Germany) were used.

HeLa cells = experiment: Calcium imaging in HeLa cells; type: cell-based, human
ERK1/2 = ERK1/2 phosphorylation in HeLa cells (Western blot); type: cell-based, human; conditions: HeLa cells incubated with S1P; anti-active ERK and anti-phosphoTyr183 ERK antibodies
Description: Panel C: Western Blot analysis of HeLa cells treated with 0.5 μM S1P for 10 minutes. Prior incubation with S1P the cells were incubated for 20 minutes with 10 μM U73122, BAPTA-AM or U0126. Cells were harvested in boiling Laemmli buffer and subjected to Western analyses using anti-active ERK1/2 antibody. Anti-Hsp70 antibody was used as loading control.

adult rats = experiment: Formalin test after intrathecal application of S1P; type: in vivo, rat; conditions: 20 μl of 10 μM S1P intrathecal 15 minutes prior to formalin; 20 to 35 minutes after formalin; versus PBS/DMSO
Description: FIG. 24: Pain behaviour of adult rats in the formalin assay with and without application of S1P over a period of 60 minutes. 20 μl of 10 μM S1P or 20 μl PBS/DMSO were given to adult rats by intrathecal application 15 minutes prior to formalin injection. After formalin injection, flinches were counted in 5 minute intervals over a time-period of 60 minutes. The mean of six animal experiments+SEM is shown.
To determine the analgesic effect of S1P, S1P was delivered to the spinal chord by intrathecal application.
Rats were anesthetized with ketamine (60 mg/kg i.p.) and midazolam (0.5-1 mg/kg i.p.). The skin was incised above the vertebral column from vertebrae Th13 up to L3. Muscle tissue around L2-3 was cleared away. The processus spinosus of L3 was removed and a laminectomy was done at L2. Polyethylene catheters (ID 0.28 mm, OD 0.61 mm) were then inserted into the peridural space so that the tip of the catheter reached Th9-10. […]
Within 15 min after stopping the infusion the formalin test was performed. […] Flinches were counted in one minute intervals up to 60 min starting right after formalin injection. […]
20 μl of 10 μM S1P or 20 μl PBS/DMSO were given to adult rats by intrathecal application 15 minutes prior to the formalin injection. Then, flinches were counted in 5 minute intervals over a period of 60 minutes.

cAMP = cAMP accumulation in HeLa cells; type: cell-based, human; conditions: 0.5 μM S1P
Description: Panel A: cAMP accumulation in HeLa cells was measured in the absence and presence of serum as described above. The mean ±SEM (Standard error of the mean) of three determinations is shown. Panel A: cAMP accumulation in HeLa cells was measured in the absence (black bars) and presence (grey bars) of 0.5 μM S1P at varying times as described in Materials and Methods section. The mean ±SEM of three determinations is shown. Spinal cord samples were sonicated and centrifugeged at 4° C. for 20 minutes with 18.000×g. The supernatent was used for cAMP measurements. The cAMP accumulation in the cells was determined by the cAMP Detection Kit (Assay Design Inc, Ann Arbor, Mich.) according to the manufacturers instructions.

Q: What does the source list for `CCCCCCCCCCCCC/C=C/[C@@H](O)[C@@H](N)COP(=O)(O)O` [S1P, Sphingosine-1-Phosphate]?
A: PAM translocation among candidate substances for the serum factor (PAM; HeLa cells): induced PAM translocation; cells with PAM translocation to the plasma membrane (PAM; HeLa cells treated with 0.1-5 μM S1P): 70-90% and 80%; time at which PAM appeared at the plasma membrane (PAM; HeLa cells, 500 nM S1P): 10 min; time at which PAM started to disappear from the plasma membrane (PAM; HeLa cells, 500 nM S1P): 1 h; time of PAM translocation to the plasma membrane (PAM; HeLa cells, 0.1-5 μM S1P): 10 to 30 min; intracellular calcium (HeLa cells): induced a PLC-dependent calcium increase; ERK1/2 phosphorylation (ERK1/2): detectable; number of nociceptive responses (flinches), phase 2A (adult rats): significant decrease; intracellular cAMP content (cAMP): reduced
